Reference: ChEMBL document CHEMBL3769330, “Synthesis of pyrimido[4,5-c]azepine- and pyrimido[4,5-c]oxepine-based γ-secretase modulators” (Bioorg Med Chem Lett, 2016)
Calls of active or inactive are those of the source. The calls are words filed in the database; no cut-off is given here.

Tests used:
Gamma-secretase = experiment: Modulation of gamma-secretase activity (unknown origin) assessed as amyloid-beta(1-42) production by ELISA; assay type: protein-complex assay, Homo sapiens
Rattus norvegicus = experiment: Reduction of amyloid-beta peptides level in rat brain at 30 mg/kg, po; assay type: functional, organism-based

IC50 (Gamma-secretase) | SMILES | inhibition (Rattus norvegicus)
56 nM | COc1cc(Nc2nc3c(c(N(C)C)n2)C=CCOC3c2ccccc2)ccc1-n1cnc(Cl)c1 (stereo unspecified) | 
5 nM | CNc1nc(Nc2ccc(-n3cnc(Cl)c3)c(OC)c2)nc2c1C=CCN=C2c1ccccc1 | Active
36 nM | COc1cc(Nc2nc3c(c(N(C)C)n2)C=CCNC3c2ccccc2)ccc1-n1cnc(Cl)c1 (stereo unspecified) | 
21 nM | COc1cc(Nc2nc3c(c(N(C)C)n2)C=CCN=C3c2ccccc2)ccc1-n1cnc(Cl)c1 | Active
